From PubChem BioAssay (NCI) come the findings set out here.

Molecules are shown by their SMILES.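 These data come from cells grown in 96-well plates and exposed to compound for 48 hours at five concentrations. GI50 is the concentration that inhibits growth by half. Definition used: TGI = concentration required for complete inhibition of growth.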

Test systems include A549 NSCLC; HL-60(TB) leukemia; HT29 colon; UO-31 renal; TK-10 renal; SK-OV-3 ovarian; BT-549 breast; SR leukemia; OVCAR-5 ovarian; MOLT-4 leukemia.
Holding throughout (experiment): DTP human tumour cell line panel, 48 h

By GI50 is commonly meant the concentration that inhibits growth by half. What is called TGI is the concentration at which net growth stops. A lower TGI goes with more potent growth arrest. In the case of `O=C1C=C(NCCNC(=S)Nc2ccccc2)c2nccc3c2c1nc1ccccc13`, the GI50 with A549 NSCLC was 44.7 µM; in the test on HL-60(TB) leukemia it was 17.4 µM; in the test on HT29 colon, 44.6 µM; in the test on UO-31 renal it was > 100 µM; in the test on TK-10 renal it was 51.9 µM; in the test on SK-OV-3 ovarian, > 100 µM. The GI50 was 70.1 µM in the test on BT-549 breast, 2.97 µM in the test on SR leukemia and > 100 µM with OVCAR-5 ovarian. Moreover, the TGI in the test with A549 NSCLC, with HL-60(TB) leukemia, with HT29 colon, in the test with UO-31 renal, in the test with TK-10 renal and in the test on SK-OV-3 ovarian was > 100 µM throughout. The TGI with BT-549 breast, in the test with SR leukemia and in the test on OVCAR-5 ovarian was > 100 µM each time.
In the case of `O=Cc1ccccc1OCCOc1cc(OCCOc2ccccc2C=O)c(OCCOc2ccccc2C=O)cc1OCCOc1ccccc1C=O`, the TGI with A549 NSCLC was > 100 µM; with HL-60(TB) leukemia it was > 100 µM; in the test on HT29 colon, > 100 µM; in the test with UO-31 renal, > 100 µM; in the test on TK-10 renal, 96.8 µM; in the test on SK-OV-3 ovarian, > 100 µM. The TGI in the test with MOLT-4 leukemia, in the test with SR leukemia and in the test with OVCAR-5 ovarian was > 100 µM in each case.
On to `O=[N+]([O-])c1ccc(S(=O)Cc2ccccc2)c([N+](=O)[O-])c1` (stereo not drawn), for which the GI50 was 16.3 µM in the test on A549 NSCLC; 2.21 µM with HL-60(TB) leukemia; 1.47 µM with UO-31 renal; 1.78 µM in the test on TK-10 renal; 16.4 µM in the test with SK-OV-3 ovarian; 2.1 µM with MOLT-4 leukemia. Further, the GI50 was 2.09 µM in the test with BT-549 breast and 14.5 µM with OVCAR-5 ovarian. Moreover, the TGI stood at 36.3 µM in the test on A549 NSCLC; 5.2 µM in the test on HL-60(TB) leukemia; 2.91 µM in the test with UO-31 renal; 3.16 µM in the test on TK-10 renal; 30 µM in the test on SK-OV-3 ovarian; 4.88 µM with MOLT-4 leukemia. Besides, the TGI with BT-549 breast came out at 7.37 µM; in the test with OVCAR-5 ovarian, 29.9 µM.
In the case of `Cc1c(S(C)(=O)=O)c(-c2cc(F)cc(N3CCN(c4ccc(NS(=O)(=O)c5ccc(N[C@H](CCN6CCC(C(=O)OCCCP(=O)(O)O)CC6)CSc6ccccc6)c(S(=O)(=O)C(F)(F)F)c5)cc4)CC3)c2)c(-c2ccc(Cl)cc2)n1C(C)C`, the GI50 in the test with A549 NSCLC is > 100 µM; in the test with HT29 colon, > 100 µM; in the test on UO-31 renal, > 100 µM; in the test on TK-10 renal, 25.8 µM; in the test on SK-OV-3 ovarian, > 100 µM; in the test with BT-549 breast, > 100 µM. For the same compound, in the test with OVCAR-5 ovarian, the GI50 was > 100 µM. Besides, the TGI in the test with A549 NSCLC, with HT29 colon, in the test with UO-31 renal, in the test on TK-10 renal, in the test with SK-OV-3 ovarian and in the test with BT-549 breast was > 100 µM in each case. For the same compound, the TGI in the test on OVCAR-5 ovarian is > 100 µM.
`COc1ccc2c(c1)C(=O)c1c-2n(CCCN=[N+]=[N-])c(=O)c2cc(N(C)C)ccc12`: the GI50 with A549 NSCLC, in the test on HL-60(TB) leukemia, in the test on HT29 colon, with UO-31 renal, with TK-10 renal and in the test on SK-OV-3 ovarian was > 100 µM in each case. Besides, the GI50 with MOLT-4 leukemia is > 100 µM; in the test on BT-549 breast it was 6.15 µM; in the test with OVCAR-5 ovarian, > 100 µM. For the same compound, the total growth inhibition concentration (TGI) with A549 NSCLC, in the test with HL-60(TB) leukemia, with HT29 colon, with UO-31 renal, with TK-10 renal and with SK-OV-3 ovarian was > 100 µM each time. The TGI with MOLT-4 leukemia, in the test on BT-549 breast and in the test with OVCAR-5 ovarian was > 100 µM each time.
As for `COC1=CC(=O)C2C(C1=O)[C@@H]1c3ccccc3C[C@H]21` (stereo partly drawn), the TGI with A549 NSCLC, with HL-60(TB) leukemia, with HT29 colon, in the test on UO-31 renal, in the test on TK-10 renal and in the test with SK-OV-3 ovarian was > 100 µM each time. Further, the TGI in the test on MOLT-4 leukemia, in the test on SR leukemia and in the test with OVCAR-5 ovarian was > 100 µM in each case.
Consider `COc1ccccc1N=C(N)N/N=C/c1c[nH]c2ccccc12`, for which the total growth inhibition concentration (TGI) in the test on A549 NSCLC came out at 26.6 µM; with HL-60(TB) leukemia, 33.3 µM; with HT29 colon it was 14.9 µM; in the test on UO-31 renal, 27.1 µM; with TK-10 renal, 30.9 µM; in the test on SK-OV-3 ovarian, 31.7 µM. In addition, the TGI came out at 23.4 µM with MOLT-4 leukemia, 26.9 µM with SR leukemia and 26.9 µM with OVCAR-5 ovarian.
As to `CC(C)=CCC/C(C)=C/CC/C(C)=C/Cc1c(O)c2ccccc2oc1=O`, the TGI in the test with A549 NSCLC, with HL-60(TB) leukemia, in the test on HT29 colon, in the test with UO-31 renal, in the test with TK-10 renal and in the test on SK-OV-3 ovarian was > 100 µM throughout. In addition, the TGI with MOLT-4 leukemia and in the test on SR leukemia was > 100 µM each time.
Take `CC1OC(OCC2OC(Oc3c(-c4ccc(O)cc4)oc4cc(O)cc(O)c4c3=O)C(OC3OC(C)C(O)C(O)C3O)C(O)C2O)C(O)C(O)C1O` (stereo not drawn): the TGI in the test with A549 NSCLC, with HL-60(TB) leukemia, in the test with HT29 colon, with UO-31 renal, with TK-10 renal and in the test with SK-OV-3 ovarian was > 100 µM in each case. The TGI in the test on MOLT-4 leukemia, with SR leukemia and in the test with OVCAR-5 ovarian was > 100 µM throughout.
Regarding `CCO/C=C/C(C)C1(C(=O)OCC)CCCCC1=O` (stereo not drawn), the TGI with A549 NSCLC, with HL-60(TB) leukemia, with HT29 colon, with UO-31 renal, in the test on TK-10 renal and with SK-OV-3 ovarian was > 100 µM each time. Also, the TGI in the test on MOLT-4 leukemia, with SR leukemia and in the test with OVCAR-5 ovarian was > 100 µM in each case.
Regarding `O=C1C=CC=CC2CC=C[C@@H](O)C12` (stereo partly drawn), the TGI in the test on A549 NSCLC is 67.7 µM; in the test with HL-60(TB) leukemia, 37 µM; in the test on HT29 colon, 37.7 µM; in the test on UO-31 renal, 31.5 µM; with TK-10 renal it was > 100 µM; in the test on SK-OV-3 ovarian it was > 100 µM. Moreover, the TGI with MOLT-4 leukemia is > 100 µM; in the test on SR leukemia, 44.2 µM; in the test with OVCAR-5 ovarian it was 63 µM.
